Measured values as given in patent US12083084B2, “Method for enhancing energy production and metabolism in cells” (REPLICON HEALTH OY, priority 2013, dated 2024).
“And” between values parts separate entries of the source, which are not always exact repeats. Equal values may be shown once.

Legend:
[1] = First set of clinical in vivo experiments, fasting blood test (Example 2.1); parameters: species or system human; details: for Headache after stopping twice a day administration: subjects S1-S3 (N = 3), 20-48 hours after last administration
Protocol: In the first set of experiments presented in Example 2.1 all the blood measurements were conducted next day after last administration of DGAcs. In the longer experiments doses (3-5 mg/kg) were typically taken once a day (preferably in the evening before going to bed). In shorter 1-4 day experiments doses were taken twice a day, in the morning and before going to bed. In all experiments in Example 2.2 the last DGAcs dose was double in size (some 8 mg/kg), and it was taken in the same morning as the collection of blood samples. Relatively high dose and short time to measurement was chosen in order to see clearer dose response in gene expression from peripheral leukocytes, and also from collected plasma samples.
Eight (8) persons completed controlled clinical testing with standard 10-12 hour fasting diet (f) blood test (sample analytics by United Medix Laboratories, Finland). There were four different types of clinical tests: first a 3 week test with low dose of DGA (N=3), secondly one 11 day test with bigger dose (N=1), and finally a 4 day test with high dose (N=4) and with low dose of DGA (N=2). Subjects 1 and 4 (in table 3) did the first three week test and then some months later also the separate 4 day test.
Daily doses varied from 3-4 mg/kg/day in 3 week test to 6 mg/kg twice a day in 4 day test. General rule in the studies was that the shorter the period the higher the dose. In three week clinical tests fasting blood standard lipid panel and other basic readings were measured at the beginning and at the end of the test period.
In the 4 day tests very wide fasting blood panel consisting of 25 different metrics was measured (see table 3 below), and additionally for some participants full blood count to measure more precise effect on erythrocytes and hemoglobin was carried out.
Unlike in hepatocytes study (Example 1) clinical experiments were conducted in a fasting diet situation. Challenges for obtaining meaningful health indications from DGAcs administration arises from the fact that the study persons (aged 41-73) were all healthy volunteers, i.e. the blood values were mostly at very good levels, and thus improvements from the control are hard to achieve. Nevertheless the results from clinical testing show clear signs on the efficacy of DGA in improving systemic redox state of especially the cardiovascular system and also clear indications of increased overall metabolic flux. Specific markers for functioning of liver, kidneys, pancreas and spleen show improvement in general (see Table 4).

[2] = Plasma sample analyses on PYR, ALA, LAC and NO; assay type: in vivo, human
Protocol: As mentioned above also plasma samples were collected from S1 and S9, at 0 h and 1 h both in 12 h and 4.5 day test, i.e. 16 observations were gathered with either DGAcs or zero control situations. Additionally in statin group (S10 and S11) 2×2 measurements were done. Altogether there were 20 observations and, thus 10 differences between control and DGAcs administration can be calculated. Pyruvate concentrations were measured using Pyruvate Assay Kit from Sigma (MAK071 Sigma). Alanine concentrations were measured using Sigma Alanine Assay Kit (MAK001). Lactate concentrations were measured using Sigma Lactate Assay Kit (MAK064). And finally nitric oxide (NO) concentrations were measured using OxiSelect™ In Vitro Nitric Oxide (Nitrite/Nitrate) Assay Kit from Nordic Biosite Oy.

rat cortical neurons = test: Protection against NMDA-induced excitotoxity; assay type: cell-based
Protocol: Cell culture. Cortical neurons were dissected from P1 rats and cultured in 96-well plates up to 7 days in the medium containing: neurobasal medium, 1.5% B27 supplement, 1 mM L-glutamine, penicillin/streptomycin.
Cell Viability/Cytotoxicity. Cell Viability was Detected by LDH Tests Like in Examples 1.1-1.2.
Cell treatment: concentration of DGAcs (10, 50 and 100 μg/ml) was added into cell culture medium at 4 DIV. After 24 h (at 5 DIV) 25% of medium was changed to fresh containing 1.5× concentration of DGAcs. Same treatment (change 25% with 1.5× concentration) was repeated at 6 DIV. The cells were transferred into Mg^2+-free Locke's buffer containing the same concentrations of DGAcs immediately before imaging experiments (at 7 DIV). For controls the same amount of medium was changed without addition of DGAcs.
In analyzing the results from the test set up starting at 7 DIV with 1 h NMDA stimulation (and 23 h follow up period), separate viability loss caused by CR can be taken into account by indexing 25 μM NMDA and 50 μM NMDA groups with the results of 0 NMDA control (see FIG. 14a). […] Even without correction for CR induced viability loss, DGAcs treatment induces very clear protection against NMDA-induced excitotoxity in 50 μM NMDA group (see FIG. 14b: “Viability after 24 hours with 1 h NMDA stimulation, indexed to 0 NMDA”)

[3] = 4 day, 5-6 mg/kg twice a day, healthy lean subjects S1-S4, fasting blood, change from zero control
[4] = 4 day, 5-6 mg/kg twice a day, healthy lean subjects S1-S4, fasting blood, change from zero control, listed as DGA calcium salt
[5] = S4 (healthy person), after 4 day test, fasting blood
[6] = average of measurements 1-10, vs zero control
[7] = healthy volunteer group only, S1 and S9

In the case of `O=C(O)[C@H](O)CO` [DGA, D-glyceric acid], the “fS-Trigly, increases in blood triglycerides” value ([1]; 5 subjects) is reported as “Observed 25-50% increases in blood triglycerides”, the “Headache after stopping twice a day administration” value ([1]; 4 day test) is reported as “some symptoms of headache after 20-48” and the “fS-Lactate dehydrogenase (LDH), average decline” value ([1]; healthy volunteers (N = 3), 4 day test) is reported as “some 4%. (Subject 3”. For the same compound, the “fS-Na (Sodium), average decline” value ([1]; healthy volunteers (N = 4), 4 day test) was roughly 1.5%, the “fS-Urate (uric acid), average decline” value ([1]; healthy volunteers (N = 6), 4 day test) was “test; average decline some 6%” and the “fS-Cholesterol, average decline” value ([1]; healthy volunteers (N = 8)) was “(only some 3-5%)”. For the same compound, the “fS-Chol.-HDL, average decline” value ([1]; healthy volunteers (N = 8), all periods and doses) was roughly 6%, the Diuretic effects ([1]; non-acute dose) was “Sodium decline in most” and the “fS-Urea, average decline” value ([1]; non-acute dose) was “some 7-8%”. For the same compound, the “CK, creatinine kinase, average reduction in values” ([1]; non-acute dose, N = 4) was “On average 25% reduction in values (N = 4)”, the “Bilirubin conj., average reduction in values” ([1]; non-acute dose, N = 6) was “On average 20% reduction in values. N = 6” and the “Bilirubin, average reduction in values” ([1]; non-acute dose, N = 6) was “On average some 20% reduction in values”. For the same compound, the “fS-Asat, average reduction in values” ([1]; non-acute dose, N = 6) was “On average 15-20% reduction”, the “fS-Fe, average reduction in values” ([1]; non-acute dose, N = 6) was “On average 15% reduction in values. N = 6” and the fS-Alat ([1]; non-acute dose, N = 8, when values were higher in the recommended range) was “improvement was observed, when values”. The “decline in NO” value ([2]; healthy individuals) was 13%, the “increase of plasma/blood pyruvate levels” value ([2]; summary statement, humans, Example 2.3.3) was 20-25% and 25% and the “excitotoxity repetition by the private CRO” value (rat cortical neurons; confirmatory study, in line with first results) was “not statistically significant”.
With `O.O.O=C([O-])[C@H](O)CO.O=C([O-])[C@H](O)CO.[Ca+2]` [DGAcs, D-glyceric acid, calcium salt dehydrate] the “Headache after stopping twice a day administration” value ([1]; 4 day test) was “slight headache”, the “HDL, 4 day change” value [1, 3] was −5% and the “LDL, 4 day change” value [1, 3] was 2%. The “S-Afos, 4 day change” value [1, 3] was −2%, the “S-Alb, 4 day change” value [1, 3] was −2% and the “S-Amyl, 4 day change” value [1, 3] was 65%. The “S-Bil, 4 day change” value [1, 3] was −12.6% and −19%, the “S-Bil-Kj, 4 day change” value [1, 3] was −17% and the “S-CK, 4 day change” value [1, 3] was −22%. The “S-Cal, 4 day change” value [1, 3] was −2%, the “S-GT, 4 day change” value [1, 3] was 11% and the “S-K, 4 day change” value [1, 3] was −2%. For the same compound, the “S-LD (LDH), 4 day change” value [1, 3] was −4%, the “S-Mg, 4 day change” value [1, 3] was −2% and the “S-Na, 4 day change” value [1, 3] was −1%. For the same compound, the “S-Uraat, 4 day change” value [1, 3] was −9.9% and −5%, the “fS-Gluk, 4 day change” value [1, 3] was 2% and the “fS-Kol, 4 day change” value [1, 3] was −2%. The “fS-Krea, 4 day change” value [1, 3] was −4%, the “fS-Pi, 4 day change” value [1, 3] was 18% and the “fS-Transf, 4 day change” value [1, 3] was 10%. The “fS-Transferr.satur., 4 day change” value [1, 3] was −32%, the “fS-Urea, 4 day change” value [1, 3] was −7% and the “HDL, 4 day change” value [1, 4] was −4.5% and −3.3% and −9.1% and −5.9%. The “S-Afos, 4 day change” value [1, 4] was −2.1% and 0.0% and −5.8% and −6.3%, the “S-Alb, 4 day change” value [1, 4] was −2.2% and 0.0% and the “S-Cal, 4 day change” value [1, 4] was −1.7% and 0.0% and −2.2% and −2.5%. The “S-LD (LDH), 4 day change” value [1, 4] was −3.7% and −4.2% and −4.8%, the “S-Mg, 4 day change” value [1, 4] was −2.4% and 6.3% and −3.6% and 2.2% and the “S-Na, 4 day change” value [1, 4] was −1.4% and −2.1% and 0.7%. For the same compound, the “S-Uraat, 4 day change” value [1, 4] was −5.2% and −3.2% and −12.0% and −9.9%, the “fS-Kol, 4 day change” value [1, 4] was −1.6% and −5.7% and −6.4% and −3.2% and the “fS-Krea, 4 day change” value [1, 4] was −4.4% and −11.1% and −5.0% and −8.5%. For the same compound, the “AST/ALT (ratio) after treatment” value ([1]; S1, earlier 4 day test (zero control 1.36)) was 1.05, the AST/ALT [1, 5] was 1.10 and the S-Bil [1, 5] was 9.7. For the same compound, the S-Uraat [1, 5] was 246, the fS-Fe [1, 5] was 20.2 and the fS-Trigly [1, 5] was 1.73. For the same compound, the “average decline in blood urea” value ([1]; after 4 and 4.5 day administrations) was “approximately 9%”, the “increase of plasma pyruvate” value ([2]; S1 and S9, 1 hour after administering 75 000 mg of glucose) was roughly 20% and the “decline in NO” value ([2]; all measurements, vs control) was “approximately 10%”. The “Average Change of the Concentration, plasma Alanine” value [2, 6] was 3.5%, the “Average Change of the Concentration, plasma Nitric Oxide” value [2, 6] was −9.9% and the “Average Change of the Concentration, plasma Pyruvate” value [2, 6] was 25.9%. For the same compound, the “Average Change of the Concentration, plasma Lactate” value ([2]; average of measurements, vs zero control) was −31.9%, the “Average Change of the Concentration, plasma Nitric Oxide (BMI < 25)” value ([2]; average, subjects with BMI < 25, vs zero control) was −13.4% and the “decrease of plasma lactate” value [2, 7] was roughly 38%. The “increase of plasma pyruvate” value [2, 7] was “approximately 25%”, the “decrease of plasma/blood lactate” value ([2]; summary statement, humans, compared to control, Example 2.3.3) was 31.9% and 30% and the “protection against NMDA-induced excitotoxity (LDH viability)” value (rat cortical neurons; 25 μM NMDA and 50 μM NMDA groups, 1 h NMDA at 7 DIV + 24 h, indexed to 0 NMDA) was “very clear and significant protection”.
